Data as given in publication PMC7534258, “Novel temporin L antimicrobial peptides: promoting self-assembling by lipidic tags to tackle superbugs” (Journal of Enzyme Inhibition and Medicinal Chemistry, 2020).
Entries after “also recorded” stand apart in the source; their conditions may differ. Like-named read-outs stand apart in the source and are kept apart here. Where a SMILES comes first, the peptide text is derived from it. [ ]: non-standard residue; d: D form. The star is where a group is joined. Phe(4-NH2) = Nc1ccc(C[C@H](N)C(=O)O)cc1; Pentanoyl = CCCCC(=O)*

Legend:
[1] = Critical aggregation concentration, Nile red fluorescence; assay type: physicochemical; details: aqueous solution, pH 7, Nile red, 1–200 µM peptide
Procedure: The solvatochromic fluorescent probe Nile red is widely used to determine the CAC of self-assembling peptides. […] Since Nile red is poorly soluble in water, there is a large preference to partition aggregates, which offer hydrophobic binding sites. Initially, 1 mM methanolic Nile red was prepared. Then, the methanolic Nile red was diluted with water in order to have a final concentration of 500 nM (solution A). The peptides 1B, 2B, 3B, C, were prepared as follows[39]: peptide stock solutions (0.4 mM) were prepared by dissolving the single peptides in water (1B, C) or tetrahydrofuran (3B, 2B) and sonicating for 15 min. Different aliquots were taken to prepare solutions of each peptide at different concentrations (1, 5, 10, 15, 20, 30, 50, 100 and 200 µM). Then, all solutions were diluted with water, sonicated for 15 min and freeze-dried. Finally, the peptide powders were dissolved with the right volume of solution A and allowed to stand in the dark place for 1 h before measurement. Emission spectra for each solution were measured by a Cary Eclipse Varian spectrometer. Spectra were taken between 570 and 700 nm at a slit width of 5 nm, using an excitation wavelength of 550 nm and a 10 nm slit width. The measurements were performed in triplicate. The data were analysed by plotting the maximum emission fluorescence corresponding wavelength (y) as a function of peptide concentration (x) and fitting with the sigmoidal Boltzmann equation: y=A1+A2/1+e^(x−x0/Δx)+A2 where the variables A1 and A2 correspond to the upper and lower limits of the sigmoid, x0 is the inflection point of the sigmoid and Δx is the parameter, which characterises the steepness of the function. The sigmoidal plot allows calculating the CAC value at x0.

[2] = test system: S. aureus ATCC 25923; assay: microbe, parasite or virus in culture; details: ATCC 25923
Procedure: Staphylococcus aureus ATCC 25923, Pseudomonas aeruginosa ATCC 27853 and Klebsiella pneumoniae ATCC BAA-1705 (carbapenemase producer) were obtained from the American Type Culture Collection (Rockville, MD).
Identification was performed by sub-culturing on Tryptic Soy Agar (TSA, Becton Dickinson) and by biochemical characterisation using the Vitek II system (Biomerieux). The antimicrobial susceptibility testing of all isolates was determined using Vitek II system and results were interpreted according to European Committee on Antimicrobial Susceptibility Testing (EUCAST version 9.0, 2019). P. aeruginosa was cultured in Brain Heart Infusion broth (BHI, OXOID), S. aureus and K. pneumoniae were cultured in Tryptic Soya broth (TSB, OXOID), under aerobic conditions at 37 °C, for 24 h on an orbital shaker at 200 rpm.
Minimal inhibitory concentrations (MIC) of all the peptides were determined in Mueller–Hinton medium by the broth microdilution assay, following the procedure already described[22]^,[34]. The compounds were added to bacterial suspension in each well yielding a final cell concentration of 1 × 10^6 CFU/ml and a final compound concentration ranging from 0.78 to 100 µM. Negative control wells were set to contain bacteria in Mueller–Hinton broth plus the amount of vehicle (ethanol) used to dilute each compound. Positive controls included vancomycin (2 µg/ml), tobramycin (4 µg/ml), gentamycin (4 µg/ml), and imipenem (8 µg/ml).

[3] = test system: HaCaT cells; details: 24 h, at 25.0 µM
Procedure: The human immortalised keratinocytes HaCaT cells (AddexBio, San Diego, CA, USA) were cultured in Dulbecco’s modified Eagle’s medium containing 4 mM glutamine (DMEMg), supplemented with 10% heat-inactivated foetal bovine serum (FBS) and 0.1 mg/ml of penicillin and streptomycin, at 37 °C and 5% CO2, in 25 cm^2 or 75 cm^2 flasks[33].
The colorimetric MTT assay was carried out to measure cellular metabolic activity in terms of cell viability[33]^,[36]. Viable cells are able to reduce, by active mitochondrial dehydrogenases, the yellow salt MTT to purple formazan crystals. Briefly, 4 × 10^4 HaCaT cells, suspended in DMEMg supplemented with 2% FBS, were plated in each well of a 96-well microtiter plate. After overnight incubation, at 37 °C in a 5% CO2 atmosphere, keratinocytes were treated for 24 h with fresh serum-free medium containing the peptides 3B and C at concentrations ranging from 3.12 µM to 25 µM. Afterward, the culture medium was replaced with Hank’s buffer supplemented with 0.5 mg/ml MTT and the plate was incubated at 37 °C and 5% CO2 for 4 h. At the end, acidified isopropanol was employed to dissolve the formazan crystals. Cell viability was calculated, with respect to cells not treated with peptide, by absorbance measurements at 570 nm using a microplate reader (Infinite M200; Tecan, Salzburg, Austria)[33]. […]

[4] = test system: HaCaT cells; details: at 25.0 µM, ref Merlino et al. [22]; cited from earlier work

Row | SMILES | CAC (critical aggregation concentration) [1] | Antimicrobial activity (MIC) S. aureus ATCC 25923 [2] [µM] | cytotoxicity [3] [%] | cytotoxicity [4] [%]
1 | CCCCC(=O)Nc1ccc(C[C@H](N)C(=O)N[C@H](C(=O)N2CCC[C@H]2C(=O)N[C@@H](Cc2c[nH]c3ccccc23)C(=O)N[C@@H](Cc2ccccc2)C(=O)N[C@@H](CO)C(=O)N[C@@H](CCCCN)C(=O)N[C@@H](Cc2ccccc2)C(=O)N[C@H](CC(C)C)C(=O)N[C@H](CCCCN)C(=O)N[C@@H](CCCNC(=N)N)C(=O)N[C@H](C(=O)N[C@@H](CC(C)C)C(N)=O)[C@@H](C)CC)C(C)C)cc1 [C, H-Phe(4-NHCO(CH2)3CH3)-Val-Pro-Trp-Phe-Ser-Lys-Phe-DLeu-DLys-Arg-Ile- Leu-NH2] (H-[Phe(4-NH2)](Pentanoyl)VPWFSKF[dL][dK]RIL-NH2) | 39.5 µM | 6.25 | 13.29 | –
2 | CC[C@H](C)[C@H](NC(=O)[C@H](CCCNC(=N)N)NC(=O)[C@@H](CCCCN)NC(=O)[C@@H](CC(C)C)NC(=O)[C@H](Cc1ccccc1)NC(=O)[C@H](CCCCN)NC(=O)[C@H](CO)NC(=O)[C@H](Cc1ccccc1)NC(=O)[C@H](Cc1c[nH]c2ccccc12)NC(=O)[C@@H]1CCCN1C(=O)[C@@H](NC(=O)[C@@H](N)Cc1ccccc1)C(C)C)C(=O)N[C@@H](CC(C)C)C(N)=O [Compound 1B, H-Phe-Val-Pro-Trp-Phe-Ser-Lys-Phe-DLeu-DLys-Arg-Ile-Leu-NH2] (H-FVPWFSKF[dL][dK]RIL-NH2) | unable to aggregate under the range of concentrations investigated; also recorded: not aggregated at the concentration tested | 6.25 | – | 28.22
